Measurements reported in patent US5688821A, “Unsaturated fatty acyl derivatives of 2-aminothiazoleacetic acid and their salts as inhibitors of phospholipase A2 derived from human sources” (American Home Products Corporation, priority 1996, dated 1997).
Structures can show the parent of a compound that is named as a salt. Where two headings read alike, the source gives them in different places. One block for each compound: values may come before it.

Assays:
[1] = target: T1, Human Platelet PLA2 (Homo sapiens, UniProt P14555); test: Inhibition of PLA2 derived from human platelets (HP), arachidonic acid release from 3H-AA E. coli substrate; assay type: biochemical; conditions: for inhibition at 50 µM: Drug Concentration 50 μM; for inhibition at 10 µM / % Inhibition HP: Drug Concentration 10 μM, Example 8: average of two runs; for % Inhibition HP: 10 µM
T1 construct: semi-purified human platelet acid extract PLA2; from tissue; host or cells: human platelets (semi-purified acid extract)
T1 sequence (P14555 21-144): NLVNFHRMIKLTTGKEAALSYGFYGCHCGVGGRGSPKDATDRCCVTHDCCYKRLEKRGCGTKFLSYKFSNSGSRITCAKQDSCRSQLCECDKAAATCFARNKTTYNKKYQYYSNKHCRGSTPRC
Experimental: (§1) The compounds of the invention are tested in an in vitro isolated phospholipase A2 assay to determine the ability of the test compounds to inhibit the release of arachidonic acid from an arachidonic acid-containing substrate by the action of phospholipase A enzyme from two human sources.
(§2) 1. INHIBITION OF PLA2 DERIVED FROM HUMAN PLATELETS AND HUMAN SYNOVIAL FLUID
(§3) This assay is carried out as follows:
(§4) Into a 15 mL polypropylene tube are added the following: […]
(§5) *pre-incubate at room temperature 30 min prior to substrate addition.
(§6) ^1. Prepared by adding 2 mL deionized and distilled water to 2 mL ^3 H-arachidonate labeled E. coli (lower count), to which is added 1 mL of ^3 H-arachidonate labeled E. coli (higher count) to yield a total of […] substrate (containing 1000 nmoles phospholipid, PL).
(§7) ^2 Stock 0.1M CaCl2 required for enzyme activity.
(§8) ^3 Stock 0.5M Trisma-Base. Stock 0.5M Trisma-HCl. Adjust pH to 7.5 (optimum for enzyme).
(§9) ^4 Deionized and distilled water.
(§10) ^5 Stock 10 mM prepared in dimethyl sulfoxide. Make 1:2 dilution with dimethyl sulfoxide and add 1 μL to 100 μL assay tube.
^6 Two human PLA2 enzymes are used:
(a) semi-purified human platelet acid extract PLA2 (in 10 mM sodium acetate buffer, pH 4.5). Remove protein precipitate by centrifugation at about 2200 rpm for 10 minutes. […]
(§11) Incubate the […] reaction mixture for 10 minutes at 37° C. in a shaking water bath. The reaction is terminated by the addition of 2 mL tetrahydrofuran, followed by vortexing. NH2 columns ([…]--Analytichem International) are conditioned with 0.5 mL tetrahydrofuran followed by 0.5 mL tetrahydrofuran/water (2 mL:0.1 mL, v/v).
(§12) The sample is loaded onto the columns and slowly dram through them. The hydrolyzed arachidonic acid retained in the columns is eluted therefrom with 1 mL tetrahydrofuran/glacial acetic acid (2%). The arachidonic acid is transferred to scintillation vials and quantitated by β-counting analysis. A "total counts" sample is prepared by pipetting 25 μl, ^3 H-arachidonate E. coli directly into a scintillation vial to which is added 1 mL tetrahydrofuran. 10 mL aquasol (scintillation cocktail) is added to all samples.

[2] = target: T2, Human Synovial PLA2 (Homo sapiens, UniProt P14555); test: Inhibition of PLA2 derived from human synovial fluid (HSF), arachidonic acid release from 3H-AA E. coli substrate; assay type: biochemical; conditions: for inhibition at 50 µM: Drug Concentration 50 μM; for inhibition at 10 µM / % Inhibition HSF: Drug Concentration 10 μM, Example 8: average of two runs; for % Inhibition HSF: 10 µM
T2 construct: Purified human synovial fluid; from tissue; host or cells: human synovial fluid (purified)
T2 sequence (P14555 21-144): T1 sequence (P14555 21-144)
Experimental: as §1, §2, §3, §4, §5, §6, §7, §8, §9, §10
^6 Two human PLA2 enzymes are used: […]
(b) Purified human synovial fluid.
as §11, §12

[3] = tested on: paw edema induced by the exogenous administration of PLA2; test: Murine paw edema assay (edema induced by exogenous PLA2); assay type: in vivo, mouse (male CD-1); conditions: for % change paw edema: 30 mg/kg i.p., * p ≤0.05; for % change paw edema (in words): dose and time not given
[4] = tested on: TPA-induced ear edema in mouse ears; test: TPA-induced dermal inflammation in mouse ears; assay type: in vivo, mouse (female Swiss Webster); conditions: Topical, 30 min after TPA, measured 4 h after TPA, * p ≤0.05
Experimental: 2. TPA-induced dermal inflammation in mouse ears
Female Swiss Webster mice (Buckshire; 8 weeks old) were divided into groups of six. Tetradecanoylphorbol acetate CrPA) was dissolved in acetone at concentrations of 50 mg/ml and 200 μg/ml, respectively. Each mouse received 4 μg/ear of TPA on the right ear. These suboptimal doses of phlogistics were applied by an automatic pipette in 10 μl volumes to both the inner and outer surfaces of the ear. The left ear (control) received acetone or vehicle. […] Drags were given 30 min. after treatment (+30 min) with TPA. Edema measurements were taken with an Oditest calipers. The thickness of the right and left ears were usually measured in traits of 0.01 mm 4 h after TPA application. Ear edema was calculated by subtracting the thickness of the left ear (vehicle control) from right ear (treated ear).

[5] = test compounds, value in parentheses, Table 1, read-out: (IC50) HP
[6] = test compounds, value in parentheses, Table 1, read-out: (IC50) HSF

SMILES: CCCCC/C=C\C/C=C\C/C=C\C/C=C\CCCC(=O)O [Arachidonic Acid, reference compound]
- IC50 ([1]; standard drugs, read-out: IC50 Human Platelet PLA2 (standard drugs)): 8.6 µM
- IC50 ([2]; standard drugs, read-out: IC50 Human Synovial PLA2 (standard drugs)): 3.2 µM

- inhibition at 50 µM [1]: 57.5%
- IC50 [1, 5]: 27.9 µM
- inhibition at 50 µM [2]: 96%
- IC50 [2, 6]: 1.7 µM
SMILES: CCCCCCCC/C=C\CCCCCCCC(=O)Nc1nc(CC(=O)O)cs1 [Example 1, 2[((Z)-1-Oxo-9-octadecenyl)amino]-4-thiazoleacetic acid]

- inhibition at 10 µM [1]: 36%
- inhibition at 10 µM [2]: 25.9%
SMILES: CCCCCCCC/C=C\CCCCCCCC(=O)Nc1nc(CC(=O)O)cs1 [Example 2, 2-[((Z)-1-Oxo-9-octadecenyl)amino]-4-thizaoleacetic acid, tromethamine (2-amino-2-hydroxymethyl)-1,3-propanediol) salt]

SMILES: CCCCCCCC/C=C/CCCCCCCC(=O)Nc1nc(CC(=O)O)cs1 [Example 3, 2-[((E)-1-Oxo-9-octadecenyl)amino]-4-thiazoleacetic acid]
- % change paw edema ([3]; 10 min after PLA2): -33%
- % change paw edema ([3]; 30 min after PLA2): -43%
- inhibition at 50 µM [1]: 70%
- IC50 [1, 5]: 25.7 µM
- % Change Edema ([4]; 100 mg/ear (so in the source)): -20%
- inhibition at 50 µM [2]: 81.7%
- IC50 [2, 6]: 2.1 µM

- % Inhibition HP [1]: 8.9%
- % Inhibition HSF [2]: 42.5%
SMILES: CCCCCCCCC#CCCCCCCCC(=O)Nc1nc(CC(=O)O)cs1 [Example 4, 2-[(1-Oxo-9-octadecynyl)amino]-4-thiazoleacetic acid]

- % Inhibition HP [1]: 26%
- % Inhibition HSF [2]: 66%
SMILES: CCCCCCCCC#CCCCCCCCC(=O)Nc1nc(CC(=O)O)cs1 [Example 5, 2-[(1-Oxo-9-octadecynyl)amino]-4-thiazoleacetic acid, tromethamine salt]

- inhibition at 10 µM [1]: 74.6%
- inhibition at 10 µM [2]: 84.8%
SMILES: CCCCC/C=C/C/C=C/CCCCCCCC(=O)Nc1nc(CC(=O)O)cs1 [Example 6]

- inhibition at 10 µM [1]: 0.5%
- inhibition at 10 µM [2]: 38.5%
SMILES: CC/C=C\C/C=C\C/C=C\CCCCCCCC(=O)Nc1nc(CC(=O)O)cs1 [Example 7, 2-[((Z,Z,Z)-1-Oxo-9,12,15-octadecatrienyl)amino]-4-thiazole-acetic acid]

- inhibition at 10 µM [1]: 65.6%
- % Inhibition HSF [2]: 2%
SMILES: CCCC/C=C\CCCCCCCC(=O)Nc1nc(CC(=O)O)cs1 [Example 8, 2-[((Z)-1-Oxo-9-tetradecenyl)amino]-4-thiazoleacetic Acid]

- % Inhibition HP [1]: 74%
- % Inhibition HSF [2]: 26.9%
SMILES: CCCC/C=C\CCCCCCCC(=O)Nc1nc(CC(=O)O)cs1 [Example 9, 2[((Z)-1-Oxo-9-tetradecenyl)amino]-4-thiazoleacetic acid, tromethamine salt]

- inhibition at 50 µM [1]: 82.7%
- inhibition at 50 µM [2]: 86.3%
SMILES: CCCCC/C=C\C/C=C\CCCCCCCCCC(=O)Nc1nc(CC(=O)O)cs1 [Example 10, 2[((Z,Z)-1-Oxo-11,14-eicosadienyl)amino]-4-thiazoleacetic acid]

SMILES: CC1=C(CC/C(C)=C/CC/C(C)=C/CCC2=CC(=O)OC2O)C(C)(C)CCC1 (centres unmarked) [Luffariellolide, reference compound]
- % change paw edema (in words) [3]: Inactive

SMILES: c1ccc2nc(COc3cccc4ccccc34)ccc2c1 [WY-47288, reference compound]
- % change paw edema (in words) [3]: Inactive
- % Change Edema ([4]; 1 mg/ear): -40%
